{"source": "patent US20180228828A1", "about": "“FIXED-DOSE COMBINATIONS OF ANTIVIRAL COMPOUNDS” (priority 2015, published 2018)", "key": {"[1]": {"assay": "log D", "format": "physicochemical", "settings": "pH=7"}, "[2]": {"assay": "human bioavailability comparison study, Tablet Formulation 9 vs co-administered single entity products", "format": "in vivo", "settings": "for AUC(0-inf) / Cmax / AUC(0-t) / concentration at 24 h: human, plasma, oral, human plasma, fasted; for concentration at 24 h: read-out: C24 GM", "protocol": "(§1) The blend is lubricated with magnesium stearate prior to roller compaction. Following roller compaction, the granules are further lubricated with magnesium stearate before compression on a rotary press. Tablet properties of apparent density and solid fraction are determined by gravimetric measurement of the drug product and geometric estimation of size with corresponding component powder measure of true density using helium pycnometry. The core tablets are then film coated and waxed to complete manufacture.\n(§2) The reference in the study was co-administration of single entity products to achieve the equivalent total dose. In this cross-over design study all subjects were in the fasted state. Tablet Formulations 9b, and 10b were administered as Treatment C in the respective studies. Tablet Formulations 9a, and 10a were administered as Treatment B in the respective studies. The co-administration of the reference products were identified as Treatment A. After administration, blood samples were taken periodically, and the plasma concentration of the analytes, both primary compounds and metabolites, determined to generate the pharmacokinetic profiles and related specific metrics. These metrics included Cmax, AUC, and C24 (where quantifiable). Summary results from the human PK trials for Tablet Formulation 9 and Tablet Formulation 10 products are provided in Table 10 to Table 13 and Table 14 to 17, respectively. The resulting metrics were then compared in relation to the reference single entity products to assess similarity."}, "[3]": {"assay": "human bioavailability comparison study, Tablet Formulation 10 vs co-administered single entity products", "format": "in vivo", "settings": "for AUC(0-inf) / Cmax / AUC(0-t) / concentration at 24 h: human, plasma, oral, human plasma, fasted; for concentration at 24 h: read-out: C24 GM", "protocol": "as §1, §2"}, "[4]": {"settings": "Treatment B (Tablet Formulation 9a) / Treatment A (single entities)"}, "[5]": {"settings": "Treatment C (Tablet Formulation 9b) / Treatment A (single entities)"}, "[6]": {"settings": "Treatment A: co-administered single entity products, equivalent total dose"}, "[7]": {"settings": "Treatment A: co-administered single entity products, equivalent total dose, read-out: AUC0-24 GM"}, "[8]": {"settings": "Treatment A: co-administered single entity products, equivalent total dose, read-out: AUC0-last GM"}, "[9]": {"settings": "Treatment B: two units Tablet Formulation 9a"}, "[10]": {"settings": "Treatment C: two units Tablet Formulation 9b"}, "[11]": {"settings": "Treatment B (Tablet Formulation 10a) / Treatment A (single entities)"}, "[12]": {"settings": "Treatment C (Tablet Formulation 10b) / Treatment A (single entities)"}, "[13]": {"settings": "Treatment B: one unit Tablet Formulation 10a"}, "[14]": {"settings": "Treatment C: one unit Tablet Formulation 10b"}}, "data": [{"smiles": "C=C[C@@H]1C[C@]1(NC(=O)[C@@H]1C[C@@H]2CN1C(=O)[C@H](C(C)(C)C)NC(=O)O[C@@H]1C[C@H]1CCCCCc1nc3ccc(OC)cc3nc1O2)C(=O)NS(=O)(=O)C1CC1", "note": "[Compound III, (1aR,5S,8S,10R,22aR)-N-[(1R,2S)-1-[(cyclopropylsulfonamido)carbonyl]-2-ethenylcyclopropyl]-14-methoxy-5-(2-methylpropan-2-yl)-3,6-dioxo-1,1a,3,4,5,6,9,10,18,19,20,21,22,22a-tetradecahydro-8H-7,10-methanocyclopropa[18,19][1,10,3,6]dioxadiazacyclononadecino[11,12-b]quinoxaline-8-carboxamide hydrate]", "values": [{"measurement": "logD", "setting": "[1]", "value": -3}, {"measurement": "AUC0-24 B/A GM ratio", "setting": "[2]; [4]", "value": 0.72}, {"measurement": "AUC0-last B/A GM ratio", "setting": "[2]; [4]", "value": 0.77}, {"measurement": "AUC0-∞ B/A GM ratio", "setting": "[2]; [4]", "value": 0.76}, {"measurement": "C24 B/A GM ratio", "setting": "[2]; [4]", "value": 0.85}, {"measurement": "Cmax B/A GM ratio", "setting": "[2]; [4]", "value": 0.64}, {"measurement": "AUC0-24 C/A GM ratio", "setting": "[2]; [5]", "value": 1.00}, {"measurement": "AUC0-last C/A GM ratio", "setting": "[2]; [5]", "value": 0.97}, {"measurement": "AUC0-∞ C/A GM ratio", "setting": "[2]; [5]", "value": 0.88}, {"measurement": "C24 C/A GM ratio", "setting": "[2]; [5]", "value": 1.04}, {"measurement": "Cmax C/A GM ratio", "setting": "[2]; [5]", "value": 0.89}, {"measurement": "AUC(0-inf)", "setting": "[2]; [6]", "value": 0.7, "unit": "µM·h"}, {"measurement": "Cmax", "setting": "[2]; [6]", "value": 38.5, "unit": "nM"}, {"measurement": "AUC(0-t)", "setting": "[2]; [7]", "value": 0.316, "unit": "µM·h"}, {"measurement": "AUC(0-t)", "setting": "[2]; [8]", "value": 0.538, "unit": "µM·h"}, {"measurement": "concentration at 24 h", "setting": "[2]; [6]", "value": 6.38, "unit": "nM"}, {"measurement": "AUC(0-t)", "setting": "[2]; Treatment B: two units Tablet Formulation 9a (450 mg Compound I, 100 mg Compound II, 50 mg Compound III), read-out: AUC0-last GM", "value": 0.415, "unit": "µM·h"}, {"measurement": "AUC(0-inf)", "setting": "[2]; [9]", "value": 0.53, "unit": "µM·h"}, {"measurement": "Cmax", "setting": "[2]; [9]", "value": 24.8, "unit": "nM"}, {"measurement": "AUC(0-t)", "setting": "[2]; Treatment B: two units Tablet Formulation 9a, read-out: AUC0-24 GM", "value": 0.229, "unit": "µM·h"}, {"measurement": "concentration at 24 h", "setting": "[2]; [9]", "value": 5.41, "unit": "nM"}, {"measurement": "AUC(0-t)", "setting": "[2]; Treatment C: two units Tablet Formulation 9b (450 mg Compound I, 100 mg Compound II, 50 mg Compound III), read-out: AUC0-last GM", "value": 0.522, "unit": "µM·h"}, {"measurement": "AUC(0-inf)", "setting": "[2]; [10]", "value": 0.617, "unit": "µM·h"}, {"measurement": "Cmax", "setting": "[2]; [10]", "value": 34.1, "unit": "nM"}, {"measurement": "AUC(0-t)", "setting": "[2]; Treatment C: two units Tablet Formulation 9b, read-out: AUC0-24 GM", "value": 0.317, "unit": "µM·h"}, {"measurement": "concentration at 24 h", "setting": "[2]; [10]", "value": 6.63, "unit": "nM"}, {"measurement": "AUC0-24 B/A GM ratio", "setting": "[3]; [11]", "value": 0.71}, {"measurement": "AUC0-last B/A GM ratio", "setting": "[3]; [11]", "value": 0.72}, {"measurement": "AUC0-∞ B/A GM ratio", "setting": "[3]; [11]", "value": 0.69}, {"measurement": "C24 B/A GM ratio", "setting": "[3]; [11]", "value": 0.80}, {"measurement": "Cmax B/A GM ratio", "setting": "[3]; [11]", "value": 0.70}, {"measurement": "AUC0-24 C/A GM ratio", "setting": "[3]; [12]", "value": 0.86}, {"measurement": "AUC0-last C/A GM ratio", "setting": "[3]; [12]", "value": 0.91}, {"measurement": "AUC0-∞ C/A GM ratio", "setting": "[3]; [12]", "value": 0.95}, {"measurement": "C24 C/A GM ratio", "setting": "[3]; [12]", "value": 0.85}, {"measurement": "Cmax C/A GM ratio", "setting": "[3]; [12]", "value": 0.91}, {"measurement": "AUC(0-inf)", "setting": "[3]; [6]", "value": 0.5, "unit": "µM·h"}, {"measurement": "Cmax", "setting": "[3]; [6]", "value": 27.5, "unit": "nM"}, {"measurement": "AUC(0-t)", "setting": "[3]; [7]", "value": 0.24, "unit": "µM·h"}, {"measurement": "AUC(0-t)", "setting": "[3]; [8]", "value": 0.36, "unit": "µM·h"}, {"measurement": "concentration at 24 h", "setting": "[3]; [6]", "value": 4.85, "unit": "nM"}, {"measurement": "AUC(0-t)", "setting": "[3]; Treatment B: one unit Tablet Formulation 10a (300 mg Compound I, 100 mg Compound II, 50 mg Compound III), read-out: AUC0-last GM", "value": 0.26, "unit": "µM·h"}, {"measurement": "AUC(0-inf)", "setting": "[3]; [13]", "value": 0.34, "unit": "µM·h"}, {"measurement": "Cmax", "setting": "[3]; [13]", "value": 19.3, "unit": "nM"}, {"measurement": "AUC(0-t)", "setting": "[3]; Treatment B: one unit Tablet Formulation 10a, read-out: AUC0-24 GM", "value": 0.17, "unit": "µM·h"}, {"measurement": "concentration at 24 h", "setting": "[3]; [13]", "value": 3.89, "unit": "nM"}, {"measurement": "AUC(0-t)", "setting": "[3]; Treatment C: one unit Tablet Formulation 10b (300 mg Compound I, 100 mg Compound II, 50 mg Compound III), read-out: AUC0-last GM", "value": 0.33, "unit": "µM·h"}, {"measurement": "AUC(0-inf)", "setting": "[3]; [14]", "value": 0.47, "unit": "µM·h"}, {"measurement": "Cmax", "setting": "[3]; [14]", "value": 24.9, "unit": "nM"}, {"measurement": "AUC(0-t)", "setting": "[3]; Treatment C: one unit Tablet Formulation 10b, read-out: AUC0-24 GM", "value": 0.2, "unit": "µM·h"}, {"measurement": "concentration at 24 h", "setting": "[3]; [14]", "value": 4.11, "unit": "nM"}]}]}
